Here are results for one molecule from patent US20060058312A1, “Stabilized aqueous preparation for injection” (priority 2004, published 2006).

Data set [1] is described as follows: Change of pH value of the aqueous solution during storage. Format: physicochemical. To be noted: added to aqueous solution of the calcium salt, pH 6 to 7, during storage.
Data set [2] in a line: Transmittance and coloring of the aqueous solution during storage. Particulars: added to aqueous solution of the calcium salt, during storage. The data set is classed as physicochemical. The source says: The suppressing effect can be attained by the action of ascorbic acid which has been stabilized by sodium pyrosulfite.

Turning to `O=C1O[C@H]([C@@H](O)CO)C(O)=C1O` [ascorbic acid], in data set [1], the “suppression of the change of the pH value to the acid region” value was “effectively be suppressed”. In addition, in data set [2], the “suppression of the lowering of the transmittance and the coloring” value is “effectively be suppressed”.
